In paper PMC9026082, “Madecassic Acid—A New Scaffold for Highly Cytotoxic Agents” (International Journal of Molecular Sciences, 2022):

Key:
[1] = tested on: several human tumor cell lines (A375, HT29, MCF-7, A2780, and HeLa); test: SRB assays, cell line not given; assay type: cell-based; conditions: for EC50: Homo sapiens, SRB assays, lowest value of the series, read-out: EC50 values as low as (analogs of madecassic acid)
Source text: To assess their cytotoxicity parent, triterpenoic acids 1–3, their acetates 4–6, the amides 7–18, as well as the respective rhodamine B conjugates 19–24 were subjected to SRB assays employing several human tumor cell lines (A375, HT29, MCF-7, A2780, and HeLa) as well as non-malignant fibroblasts (NIH 3T3). […]
(§1) 2. Cytotoxicity assay (SRB assay)
(§2) The cell lines were obtained from Department of oncology (Martin-Luther-University Halle Wittenberg). Cultures were maintained as monolayers in RPMI 1640 medium with L-glutamine (Capricorn Scientific GmbH, Ebsdorfergrund, Germany) supplemented with 10% heat inactivated fetal bovine serum (Sigma -Aldrich Chemie GmbH, Steinheim, Germany) and penicillin/streptomycin (1%, Capricorn Scientific GmbH, Ebsdorfergrund, Germany) at 37 °C in a humidified atmosphere with 5% CO 2.
(§3) The cytotoxicity of the compounds was eva luated using the sulforhodamine -B (Kiton-Red S, ABCR) micro culture colorimetric assay using […] in 96 -well plates with the seeding of the cells on day 0 applying appropriate cell densities to prevent confluence of the cells during the period of the experiment. On day 1, the cells were treated with six di fferent concentrations (1, 3, 7, 12, 20 and 30 μM); thereby, the final concentration of DMSO was always < 0.5%, generally regarded as non-toxic to the cells. On day 4, the supernatant medium was discarded; the cells were fixed with 10 % trichloroacetic acid. After another day at 4 °C, the cells were washed in a strip washer and dyed with the SRB solution (100 μL, 0.4% in 1% acetic acid) for about 20 min to be followed by washing of the plates (four times, 1% acetic acid) and air -drying […]
(§4) overnight. Furthermore, tris base solution (200 μL, 10 mM) was added to each well and absorbance was measured at λ = 570 nm employing a reader (96 wells, Tecan Spectra, Crailsheim, Germany). The EC50 values were averaged from three independent experiments performed each in triplicate calculated from semi logarithmic dose response curves applying a non-linear four-parameter Hills-slope equation (GraphPad Prism5; variables top and bottom were set to 100 and 0, respectively).

[2] = tested on: A2780 (ovarian carcinoma); test: SRB cytotoxicity assay, A2780; assay type: cell-based, human; conditions: for EC50: SRB assay, 72 h of treatment, cut-off 30 μM
Source text: (§5) To assess their cytotoxicity parent, triterpenoic acids 1–3, their acetates 4–6, the amides 7–18, as well as the respective rhodamine B conjugates 19–24 were subjected to SRB assays employing several human tumor cell lines (A375, HT29, MCF-7, A2780, and HeLa) as well as non-malignant fibroblasts (NIH 3T3).
(§6) A detailed description of materials and methods can be found in the Supplementary Materials File. For biological screening, the cell lines were obtained from ATCC: A375 (CRL-1619), HT29 (HTB-38), MCF7 (HTP-22), A2780 (HTP-77), HeLa (CCL-2), and NIH 3T3 (CRL-1573) ^13C NMR spectra (Supplementary Materials) were recorded as APT spectra showing CH and CH3 groups as positive signals and CH2 groups and quaternary carbons as negative signals. […]
as §1, §2, §3, §4

A375 (melanoma) = test: SRB cytotoxicity assay, A375; assay type: cell-based, human; conditions: 72 h of treatment, cut-off 30 μM
Source text: as §5, §6, §1, §2, §3, §4

[3] = tested on: MCF7 (breast adenocarcinoma); test: SRB cytotoxicity assay, MCF7; assay type: cell-based, human; conditions: cut-off 30 μM
Source text: as §5, §6, §1, §2, §3, §4

[4] = tested on: HT29 (colorectal carcinoma); test: SRB cytotoxicity assay, HT29; assay type: cell-based, human; conditions: cut-off 30 μM
Source text: as §5, §6, §1, §2, §3, §4

[5] = tested on: NIH 3T3 (non-malignant fibroblasts); test: SRB cytotoxicity assay, NIH 3T3; assay type: cell-based; conditions: cut-off 30 μM
Source text: as §5, §6, §1, §2, §3, §4

[6] = tested on: HeLa (cervical carcinoma); test: SRB cytotoxicity assay, HeLa; assay type: cell-based, human; conditions: 72 h of treatment, cut-off 30 μM
Source text: as §5, §6, §1, §2, §3, §4

A375 cells = test: Staining experiments (acridine orange, rhodamine 123, Hoechst 33,342); assay type: cell-based, human; conditions: 48 h, same area as rhodamine 123, not in nucleus (Hoechst 33,342)
Experimental: The mode of action—as previously shown for several triterpene-rhodamine B conjugates—is to act as mitocans. […] Thereby, Hoechst 33,342 binds selectively to DNA while rhodamine 123 is usually applied for dying mitochondria.
Figure 1 Staining experiments: A375 cells, 48 h; (A): control; (B): in the presence of 24; (C): Hoechst 33,342 staining; (D): merged (Hoechst 33,342, control); and (E): in the presence of rhodamine 123.

[7] = Homo sapiens, MCF7, 72 h of treatment
[8] = Homo sapiens, HT-29, 72 h of treatment
[9] = Mus musculus, NIH3T3, 72 h of treatment

Compound: CCN(CC)c1ccc2c(-c3ccccc3C(=O)O)c3ccc(=[N+](CC)CC)cc-3oc2c1 [rhodamine B, reference compound]
- cytotoxicity ([1]; SRB assay, cut-off 30 μM): not cytotoxic

Compound: CC(=O)OC[C@@]1(C)[C@@H]2[C@H](O)C[C@]3(C)[C@H](CC=C4[C@@H]5[C@@H](C)[C@H](C)CC[C@]5(C(=O)O)CC[C@]43C)[C@@]2(C)C[C@@H](OC(C)=O)[C@@H]1OC(C)=O [Compound 6, (2α,3β,4α,6β) 2,3,23-Tris(acetyloxy)-6-hydroxyurs-12-en-28-oic Acid]
- EC50 ([1]; cell line not stated): ≥ 0.015 µM
- EC50 ([2]; Homo sapiens, A2780): 8.1 ± 0.7 µM
- EC50 (A375 (melanoma); Homo sapiens, A-375, 72 h): 3.5 ± 0.5 µM
- EC50 [3, 7]: 7.1 ± 0.6 µM
- EC50 [4, 8]: 14.5 ± 1.1 µM
- EC50 [5, 9]: 7.6 ± 0.8 µM

Compound: CC(=O)OC[C@@]1(C)[C@@H]2[C@H](O)C[C@]3(C)[C@H](CC=C4[C@@H]5[C@@H](C)[C@H](C)CC[C@]5(C(=O)Nc5ccccc5)CC[C@]43C)[C@@]2(C)C[C@@H](OC(C)=O)[C@@H]1OC(C)=O [Compound 16, (2α,3β,4α,6β) 2,3,23-Tris(acetyloxy)-N-(phenyl)-6-hydroxyurs-12-en-28-amide]
- EC50 ([1]; cell line not stated): ≥ 0.015 µM
- melting point: 135 to 139 °C
- EC50 ([2]; Homo sapiens, A2780): 2.2 ± 0.1 µM
- EC50 (A375 (melanoma); Homo sapiens, A-375, 72 h): 1.3 ± 0.1 µM
- EC50 [3, 7]: 4.5 ± 0.9 µM
- EC50 [4, 8]: 3.7 ± 0.4 µM
- EC50 [5, 9]: 21.1 ± 1.1 µM

Compound: CCN(CC)c1ccc2c(-c3ccccc3C(=O)N3CCCN(C(=O)[C@]45CC[C@@H](C)[C@H](C)[C@H]4C4=CC[C@@H]6[C@@]7(C)C[C@@H](OC(C)=O)[C@H](OC(C)=O)[C@@](C)(COC(C)=O)[C@@H]7[C@H](O)C[C@@]6(C)[C@]4(C)CC5)CC3)c3ccc(=[N+](CC)CC)cc-3oc2c1 [Compound 24, N-{6-Diethylamino-9-[2-({4[ (2α,3β,4α,6β)-2,3,23-tris(acetyloxy)-6-hydroxy-28-oxours-12-en-28-yl)-1,4-diazepan-1-yl}carbonyl]phenyl]-3H-xanthen-3-ylidene)-N-ethylethanaminium Chloride]
- EC50 ([6]; Homo sapiens, HeLa): 0.0526 ± 0.0151 µM
- times more cytotoxic than parent madecassic acid ([1]; cell line not stated): ~10,000 times
- times more cytotoxic than parent madecassic acid ([2]; A2780 ovarian cancer cells): more than 10,000 times
- EC50 ([2]; Homo sapiens, A2780): 0.0029 ± 0.0005 µM
- mode of action / localization within the cells (A375 cells): acts as a mitocan
- EC50 (A375 (melanoma); Homo sapiens, A-375, 72 h): 0.0095 ± 0.0015 µM
- EC50 [3, 7]: 0.0162 ± 0.0045 µM
- EC50 [4, 8]: 0.0127 ± 0.0038 µM
- EC50 [5, 9]: 0.101 ± 0.0231 µM

Compound: C[C@H]1[C@H](C)CC[C@]2(C(=O)O)CC[C@]3(C)C(=CC[C@@H]4[C@@]5(C)C[C@@H](O)[C@H](O)[C@@](C)(CO)[C@@H]5[C@H](O)C[C@]43C)[C@H]12 [Compound 3, Madecassic Acid]
- EC50 ([1]; cell line not stated): ≥ 0.015 µM
- EC50 ([2]; Homo sapiens, A2780): > 30 µM
- EC50 (A375 (melanoma); Homo sapiens, A-375, 72 h): > 30 µM
- EC50 [3, 7]: > 30 µM
- EC50 [4, 8]: > 30 µM
- EC50 [5, 9]: > 30 µM

Compound: CC(=O)OC[C@@]1(C)[C@@H]2[C@H](O)C[C@]3(C)[C@H](CC=C4[C@@H]5[C@@H](C)[C@H](C)CC[C@]5(C(=O)NCc5ccccc5)CC[C@]43C)[C@@]2(C)C[C@@H](OC(C)=O)[C@@H]1OC(C)=O [Compound 15, (2α,3β,4α,6β) 2,3,23-Tris(acetyloxy)-N-(benzyl)-6-hydroxyurs-12-en-28-amide]
- EC50 ([1]; cell line not stated): ≥ 0.015 µM
- melting point: 90 to 95 °C
- EC50 ([2]; Homo sapiens, A2780): 1.4 ± 0.1 µM
- EC50 (A375 (melanoma); Homo sapiens, A-375, 72 h): 1 ± 0.1 µM
- EC50 [3, 7]: 2.7 ± 0.4 µM
- EC50 [4, 8]: 2.3 ± 0.2 µM
- EC50 [5, 9]: 17.9 ± 2.1 µM

Compound: CC(=O)OC[C@@]1(C)[C@@H]2CC[C@]3(C)[C@H](CC=C4[C@@H]5CC(C)(C)CC[C@]5(C(=O)O)CC[C@]43C)[C@@]2(C)CC[C@@H]1OC(C)=O [Compound 5, (3β,4α) 3,23-Bis(acetyloxy)olean-12-en-28-oic Acid]
- EC50 ([6]; Homo sapiens, HeLa): 12.4 ± 0.7 µM
- melting point: 185 to 189 °C
- EC50 ([2]; Homo sapiens, A2780): 11.9 ± 0.5 µM
- EC50 (A375 (melanoma); Homo sapiens, A-375, 72 h): 17.1 ± 1.1 µM
- EC50 [3, 7]: 9.8 ± 1 µM
- EC50 [4, 8]: 19 ± 0.6 µM
- EC50 [5, 9]: 9.6 ± 0.6 µM

Compound: CC(=O)O[C@H]1CC[C@]2(C)[C@H]3CC=C4[C@@H]5CC(C)(C)CC[C@]5(C(=O)O)CC[C@@]4(C)[C@]3(C)CC[C@H]2[C@]1(C)C=O [Compound 4, (3β,4α) 3-(Acetyloxy)-23-oxoolean-12-en-28-oic Acid]
- EC50 ([6]; Homo sapiens, HeLa): > 30 µM
- EC50 (A375 (melanoma); Homo sapiens, A-375, 72 h): > 30 µM
- EC50 [3, 7]: 24.6 ± 4.7 µM
- EC50 [4, 8]: > 30 µM

Compound: CC1(C)CC[C@]2(C(=O)O)CC[C@]3(C)C(=CC[C@@H]4[C@@]5(C)CC[C@H](O)[C@@](C)(CO)[C@@H]5CC[C@]43C)[C@@H]2C1 [Compound 2, (3β,4α) 3,23-Dihydroxyolean-12-en-28-oic Acid]
- EC50 ([6]; Homo sapiens, HeLa): > 30 µM
- EC50 ([2]; Homo sapiens, A2780): 19.6 ± 1.6 µM
- EC50 (A375 (melanoma); Homo sapiens, A-375, 72 h): 26.3 ± 1.8 µM
- EC50 [3, 7]: 25.7 ± 1.9 µM
- EC50 [4, 8]: > 30 µM
- EC50 [5, 9]: > 30 µM

Compound: (3β,4α) 3-Hydroxy-23-oxoolean-12-en-28-oic Acid [Compound 1]
- EC50 [6]: 25 ± 4.1 µM
- EC50 [2]: 13 ± 1.6 µM
- EC50 (A375 (melanoma)): 17.3 ± 1.6 µM
- EC50 ([3]; 72 h of treatment): 18.5 ± 2.2 µM
- EC50 ([4]; 72 h of treatment): > 30 µM
- EC50 ([5]; 72 h of treatment): 16.7 ± 2.8 µM

Compound: CCN(CC)c1ccc2c(-c3ccccc3C(=O)N3CCN(C(=O)[C@]45CC[C@@H](C)[C@H](C)[C@H]4C4=CC[C@@H]6[C@@]7(C)C[C@@H](OC(C)=O)[C@H](OC(C)=O)[C@@](C)(COC(C)=O)[C@@H]7[C@H](O)C[C@@]6(C)[C@]4(C)CC5)CC3)c3ccc(=[N+](CC)CC)cc-3oc2c1 [Compound 23, N-{6-Diethylamino-9-[2-({4[ (2α,3β,4α,6β)-2,3,23-tris(acetyloxy)-6-hydroxy-28-oxours-12-en-28-yl)-1-piperazinyl]carbonyl]phenyl]-3H-xanthen-3-ylidene)-N-ethylethanaminium Chloride]
- EC50 ([1]; cell line not stated): ≥ 0.015 µM
- EC50 ([2]; Homo sapiens, A2780): 0.015 ± 0.001 µM
- EC50 (A375 (melanoma); Homo sapiens, A-375, 72 h): 0.055 ± 0.01 µM
- EC50 [3, 7]: 0.054 ± 0.01 µM
- EC50 [4, 8]: 0.108 ± 0.02 µM
- EC50 [5, 9]: 0.277 ± 0.03 µM
